Columns and labels:
[1] = biological target: JAK3 (Homo sapiens (Human), UniProt P52333); assay: JAK3 enzymatic assay; format: biochemical; details: ATP 6.2 μM, Peptide22
Experimental: (§1) A. JAK1, JAK2, and JAK3 Enzymatic Assays
(§2) The JAK enzymatic assay used the following reagents.
JAK3 (Carna Bio, USA, Inc. Natick, MA, Cat.No. 08-046)
(§3) Preparation of assay plate. Each sample or reference compound was diluted to 50× the desired highest inhibitor concentration with DMSO. Each sample or reference compound was serially diluted using a 96-well source plate so that there were 10 concentrations for testing. 10 μL from each well of the source plate was transferred to a 96-well intermediate plate. […] 5 μL from each well of the 96-well intermediate plate was transferred to a 384-well plate.
(§4) Kinase reaction. […] The term “max” refers to the DMSO control and “min” stands for low control. Curve-fitting of the data was performed using Xlfit excel add-in version 5.4.0.8 to obtain IC50 values. Equation used was Y=Bottom+(Top−Bottom)/(1+(Log IC50/X)^HillSlope. The peptide substrates used for each kinase, peptide concentration, enzyme concentration, and ATP concentrations are presented in TABLE 2.

[2] = biological target: JAK1 (Homo sapiens (Human), UniProt P23458); assay: JAK1 enzymatic assay; format: biochemical; details: for IC50: ATP 66 μM, Peptide D; for selectivity for JAK1 over JAK2 / selectivity for JAK1 over JAK3: from enzymatic IC50 values; for selectivity for JAK1 over JAK2: JAK1 vs JAK2; for selectivity for JAK1 over JAK3: JAK1 vs JAK3
Chain of JAK1 (P23458 whole entry): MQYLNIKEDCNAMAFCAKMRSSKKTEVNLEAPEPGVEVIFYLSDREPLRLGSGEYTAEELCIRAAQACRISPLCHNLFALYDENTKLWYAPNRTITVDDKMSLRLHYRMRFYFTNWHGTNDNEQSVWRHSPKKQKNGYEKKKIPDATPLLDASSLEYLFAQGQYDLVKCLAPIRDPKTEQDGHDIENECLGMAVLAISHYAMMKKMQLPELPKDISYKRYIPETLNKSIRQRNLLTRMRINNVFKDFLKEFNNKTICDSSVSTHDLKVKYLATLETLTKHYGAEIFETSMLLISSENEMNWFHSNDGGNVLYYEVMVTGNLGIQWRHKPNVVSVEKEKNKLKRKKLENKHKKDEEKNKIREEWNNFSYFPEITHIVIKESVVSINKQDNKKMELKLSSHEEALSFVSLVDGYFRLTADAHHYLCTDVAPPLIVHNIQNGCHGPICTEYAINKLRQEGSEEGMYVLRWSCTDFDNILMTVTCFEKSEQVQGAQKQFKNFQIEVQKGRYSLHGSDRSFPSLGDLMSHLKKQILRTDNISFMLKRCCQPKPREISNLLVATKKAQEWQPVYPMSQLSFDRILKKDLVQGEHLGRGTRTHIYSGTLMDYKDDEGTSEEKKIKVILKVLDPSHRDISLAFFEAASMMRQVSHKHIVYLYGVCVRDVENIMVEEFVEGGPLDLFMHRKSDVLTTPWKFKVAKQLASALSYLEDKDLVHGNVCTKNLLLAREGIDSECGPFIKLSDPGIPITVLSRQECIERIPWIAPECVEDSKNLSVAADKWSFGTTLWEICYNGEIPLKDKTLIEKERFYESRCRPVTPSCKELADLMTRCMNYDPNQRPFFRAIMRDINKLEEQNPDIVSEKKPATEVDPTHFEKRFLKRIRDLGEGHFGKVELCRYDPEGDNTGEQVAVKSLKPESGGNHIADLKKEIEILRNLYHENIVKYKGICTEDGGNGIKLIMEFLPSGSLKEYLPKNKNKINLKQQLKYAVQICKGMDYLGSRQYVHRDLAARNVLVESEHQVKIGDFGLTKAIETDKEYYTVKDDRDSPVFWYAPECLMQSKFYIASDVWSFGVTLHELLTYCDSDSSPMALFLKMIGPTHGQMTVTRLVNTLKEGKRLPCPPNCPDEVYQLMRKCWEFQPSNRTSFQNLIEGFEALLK
Experimental: as §1, §2, §3, §4

[3] = biological target: JAK2 (Homo sapiens (Human), UniProt O60674); assay: JAK2 enzymatic assay; format: biochemical; details: ATP 6.5 μM, Peptide22
Chain of JAK2 (O60674 whole entry): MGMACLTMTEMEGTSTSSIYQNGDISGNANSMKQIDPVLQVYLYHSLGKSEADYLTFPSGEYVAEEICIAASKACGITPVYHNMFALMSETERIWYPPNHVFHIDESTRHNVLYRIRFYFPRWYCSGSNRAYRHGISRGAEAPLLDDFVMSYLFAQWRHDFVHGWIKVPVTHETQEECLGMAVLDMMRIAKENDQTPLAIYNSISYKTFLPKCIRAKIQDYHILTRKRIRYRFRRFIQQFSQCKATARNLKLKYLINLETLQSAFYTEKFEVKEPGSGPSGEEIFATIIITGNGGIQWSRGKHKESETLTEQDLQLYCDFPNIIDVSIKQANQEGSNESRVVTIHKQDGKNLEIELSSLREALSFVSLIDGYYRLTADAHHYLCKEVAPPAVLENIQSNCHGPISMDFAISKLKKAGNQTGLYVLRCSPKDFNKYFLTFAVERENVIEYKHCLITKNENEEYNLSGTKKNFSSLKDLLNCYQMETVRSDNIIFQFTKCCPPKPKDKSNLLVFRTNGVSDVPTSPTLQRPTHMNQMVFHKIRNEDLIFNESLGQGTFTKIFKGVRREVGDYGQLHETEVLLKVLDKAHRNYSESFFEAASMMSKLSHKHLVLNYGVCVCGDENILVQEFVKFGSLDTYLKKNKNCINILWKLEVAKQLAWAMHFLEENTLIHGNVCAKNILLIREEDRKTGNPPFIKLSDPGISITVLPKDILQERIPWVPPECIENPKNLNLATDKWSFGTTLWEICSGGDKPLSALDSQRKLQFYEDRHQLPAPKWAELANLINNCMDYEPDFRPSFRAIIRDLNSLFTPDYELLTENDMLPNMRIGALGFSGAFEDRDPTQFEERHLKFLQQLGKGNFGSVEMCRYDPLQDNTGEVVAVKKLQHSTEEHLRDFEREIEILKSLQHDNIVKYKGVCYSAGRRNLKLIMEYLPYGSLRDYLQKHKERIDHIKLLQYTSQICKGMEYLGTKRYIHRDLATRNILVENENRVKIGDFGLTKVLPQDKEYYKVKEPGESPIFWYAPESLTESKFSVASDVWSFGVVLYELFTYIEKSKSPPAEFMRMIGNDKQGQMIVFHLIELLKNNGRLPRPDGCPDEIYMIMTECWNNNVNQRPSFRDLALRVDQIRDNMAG
Experimental: as §1, §2
JAK2 (Carna Bio, USA, Inc. Natick, MA, Cat.No. 08-045)
as §3, §4

[4] = biological target: TYK2 (Homo sapiens (Human), UniProt P29597); assay: TYK2 enzymatic assay; format: biochemical; details: ATP 16 μM, Peptide30
Chain of TYK2 (P29597 whole entry): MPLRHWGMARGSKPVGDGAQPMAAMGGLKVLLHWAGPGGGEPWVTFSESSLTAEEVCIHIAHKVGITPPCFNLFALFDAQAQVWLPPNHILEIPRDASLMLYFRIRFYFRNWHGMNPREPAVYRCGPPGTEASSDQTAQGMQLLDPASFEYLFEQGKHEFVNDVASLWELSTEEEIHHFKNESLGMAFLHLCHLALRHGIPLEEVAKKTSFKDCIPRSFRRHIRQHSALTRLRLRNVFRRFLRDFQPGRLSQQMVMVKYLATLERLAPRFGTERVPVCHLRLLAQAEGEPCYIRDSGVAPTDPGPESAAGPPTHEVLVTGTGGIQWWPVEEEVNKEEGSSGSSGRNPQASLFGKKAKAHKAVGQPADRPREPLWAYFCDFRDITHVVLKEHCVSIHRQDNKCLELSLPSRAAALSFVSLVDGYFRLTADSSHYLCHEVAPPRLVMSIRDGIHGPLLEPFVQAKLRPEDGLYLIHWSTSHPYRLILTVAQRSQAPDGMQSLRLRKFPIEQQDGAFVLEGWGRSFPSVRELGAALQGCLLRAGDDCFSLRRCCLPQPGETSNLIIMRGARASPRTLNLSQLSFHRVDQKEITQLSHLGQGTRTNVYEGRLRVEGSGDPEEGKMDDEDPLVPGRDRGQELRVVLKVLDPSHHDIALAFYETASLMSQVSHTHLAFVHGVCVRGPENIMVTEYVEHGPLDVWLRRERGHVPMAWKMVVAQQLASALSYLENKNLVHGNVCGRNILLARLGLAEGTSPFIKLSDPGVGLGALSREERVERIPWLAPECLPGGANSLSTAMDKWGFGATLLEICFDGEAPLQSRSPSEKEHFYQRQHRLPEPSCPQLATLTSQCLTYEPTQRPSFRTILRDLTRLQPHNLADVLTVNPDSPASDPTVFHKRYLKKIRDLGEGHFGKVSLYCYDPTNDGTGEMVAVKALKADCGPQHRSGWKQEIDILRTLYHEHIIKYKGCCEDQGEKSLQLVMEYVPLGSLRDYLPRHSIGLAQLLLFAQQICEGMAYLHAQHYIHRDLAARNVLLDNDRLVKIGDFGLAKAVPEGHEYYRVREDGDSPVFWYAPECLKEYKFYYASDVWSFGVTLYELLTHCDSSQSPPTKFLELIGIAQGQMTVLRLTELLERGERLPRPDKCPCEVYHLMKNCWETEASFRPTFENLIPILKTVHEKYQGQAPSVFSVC

[5] = Metabolic stability assay (liver microsomes); format: in vitro ADME; details: dog liver microsomes; for Percent Remaining (%) 0 min / Percent Remaining (%) 5 min / Percent Remaining (%) 15 min / Percent Remaining (%) 30 min / Percent Remaining (%) 45 min: mean; for half-lives as compared with the reference compounds: vs Oclacitinib and ketanserin; for CLint scaled at 1 µM / half-life at 1 µM: pooled liver microsomes, pH 7.4
Experimental: Stock solutions of the sample and reference compounds were prepared in DMSO (10 mM). A spiking solution (500 μM) was prepared for each sample compound and reference compound by diluting 10 μL of the stock solution in ACN (190 μL). A microsomal spiking solution having a microsome concentration of 0.75 mg/mL was prepared for each sample: 1.5 μL of the respective 500 μM spiking solution was mixed with 18.75 μL microsomal solution (pooled liver microsomes, 20 mg/mL in 250 mM sucrose, Corning, Cat. No. 452601, Lot. No. 8176003) and 479.75 μL buffer (0.1 M potassium phosphate buffer, 1.0 mM EDTA, pH 7.4). The microsomal spiking solutions were cooled on ice. Assay plates with wells designated for different time points (0, 5, 15, 30 and 45 minutes) were cooled on ice. 30 μL of each microsomal spiking solution was added to the wells designated for different time points (0, 5, 15, 30 and 45 minutes). 135 μL of ACN containing IS was added to the wells of the plate labelled 0 minutes followed by 15 μL of the NaDPH stock solution (6 mM NaDPH in 0.1 M Potassium Phosphate buffer, 1.0 mM EDTA, pH 7.4). The plates for 5, 15, 30 and 45 minutes were incubated at 37° C. for 5 minutes. At 5 min, […], 30 min, and 45 min, 135 μL of ACN containing IS was added to the wells of the corresponding plates to quench the reaction. The plates were shaken [IKA vibrator, MTS 2/4] for 10 minutes and centrifuged at 5594 G for 15 minutes (Thermo Multifuge×3R). 50 μL of the supernatant from each well was transferred to a 96-well sample plate containing 50 μL of ultrapure water (Millipore, ZMQS50F01) for LC-MS analysis.

Chain of JAK3 (P52333 whole entry): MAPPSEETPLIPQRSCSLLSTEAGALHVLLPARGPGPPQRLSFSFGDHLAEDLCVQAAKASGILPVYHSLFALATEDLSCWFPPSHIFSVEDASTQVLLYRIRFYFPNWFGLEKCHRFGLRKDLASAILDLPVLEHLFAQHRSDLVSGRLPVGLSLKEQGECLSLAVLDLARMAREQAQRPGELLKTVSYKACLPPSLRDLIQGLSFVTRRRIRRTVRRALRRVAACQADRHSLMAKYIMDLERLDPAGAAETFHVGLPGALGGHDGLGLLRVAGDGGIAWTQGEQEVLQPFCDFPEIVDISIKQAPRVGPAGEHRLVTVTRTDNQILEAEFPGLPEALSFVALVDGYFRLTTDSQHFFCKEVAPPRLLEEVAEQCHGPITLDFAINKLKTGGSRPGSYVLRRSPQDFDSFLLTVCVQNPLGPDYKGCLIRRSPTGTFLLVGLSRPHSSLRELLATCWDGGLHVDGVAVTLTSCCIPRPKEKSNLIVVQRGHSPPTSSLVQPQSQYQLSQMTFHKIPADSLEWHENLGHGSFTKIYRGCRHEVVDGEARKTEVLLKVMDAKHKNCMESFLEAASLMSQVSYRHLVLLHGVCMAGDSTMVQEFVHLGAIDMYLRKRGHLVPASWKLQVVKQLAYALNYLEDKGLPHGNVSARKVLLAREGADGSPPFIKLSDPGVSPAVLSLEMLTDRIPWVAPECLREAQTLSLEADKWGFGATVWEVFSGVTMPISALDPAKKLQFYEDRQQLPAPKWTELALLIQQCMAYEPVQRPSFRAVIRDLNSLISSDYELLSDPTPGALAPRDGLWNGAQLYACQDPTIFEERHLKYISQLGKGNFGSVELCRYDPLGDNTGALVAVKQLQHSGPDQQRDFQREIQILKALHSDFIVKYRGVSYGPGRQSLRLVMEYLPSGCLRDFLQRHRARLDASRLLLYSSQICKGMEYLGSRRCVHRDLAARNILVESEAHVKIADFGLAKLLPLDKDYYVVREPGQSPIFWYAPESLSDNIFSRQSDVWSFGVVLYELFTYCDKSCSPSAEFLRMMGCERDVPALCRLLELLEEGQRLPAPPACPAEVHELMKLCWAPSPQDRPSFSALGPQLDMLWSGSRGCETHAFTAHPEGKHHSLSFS

| Structure (SMILES) | IC50 [1] [nM] | IC50 [2] [nM] | selectivity for JAK1 over JAK2 [2] | selectivity for JAK1 over JAK3 [2] [fold] | IC50 [3] [nM] | IC50 [4] [nM] | Percent Remaining (%) 0 min [5] [%] | Percent Remaining (%) 5 min [5] [%] | Percent Remaining (%) 15 min [5] [%] | Percent Remaining (%) 30 min [5] [%] | Percent Remaining (%) 45 min [5] [%] | half-lives as compared with the reference compounds [5] | CLint scaled at 1 µM [5] [mL/min/kg] | half-life at 1 µM [5] [h] |
| --- | --- | --- | --- | --- | --- | --- | --- | --- | --- | --- | --- | --- | --- | --- |
| CNC(=O)N[C@H]1CC[C@H](N(C)c2ncnc3[nH]ccc23)CC1 [Compound 1, 1-methyl-3-((1r,4r)-4-(methyl(7H-pyrrolo[2,3-d]pyrimidin-4-yl)amino)cyclohexyl)urea] | 618 | 156 | 87% | 3.96 | 292 | 3820 |  |  |  |  |  |  |  |  |
| CC(C)NC(=O)N[C@H]1CC[C@H](N(C)c2ncnc3[nH]ccc23)CC1 [Compound 4, 1-isopropyl-3-((1r,4r)-4-(methyl(7H-pyrrolo[2,3-d]pyrimidin-4-yl)amino)cyclohexyl)urea] | 615 | 40 | 3.35 fold | 15.4 | 134 | 2710 |  |  |  |  |  |  |  |  |
| O=C(c1ccc(F)cc1)C1CCN(CCn2c(=O)[nH]c3ccccc3c2=O)CC1 [ketanserin, reference compound] |  |  |  |  |  |  | 100.00 | 82.91 | 62.01 | 42.37 | 36.16 |  | 114 | 0.505 |

Next, values leading:

| IC50 [1] [nM] | IC50 [2] [nM] | selectivity for JAK1 over JAK2 [2] | selectivity for JAK1 over JAK3 [2] [fold] | IC50 [3] [nM] | IC50 [4] [nM] | Percent Remaining (%) 0 min [5] [%] | Percent Remaining (%) 5 min [5] [%] | Percent Remaining (%) 15 min [5] [%] | Percent Remaining (%) 30 min [5] [%] | Percent Remaining (%) 45 min [5] [%] | half-lives as compared with the reference compounds [5] | CLint scaled at 1 µM [5] [mL/min/kg] | half-life at 1 µM [5] [h] | Structure (SMILES) |
| --- | --- | --- | --- | --- | --- | --- | --- | --- | --- | --- | --- | --- | --- | --- |
| 447 | 43 | 2.9 fold | 10.4 | 126 | 1790 |  |  |  |  |  |  |  |  | CCNC(=O)N[C@H]1CC[C@H](N(C)c2ncnc3[nH]ccc23)CC1 [Compound 2, 1-ethyl-3-((1r,4r)-4-(methyl(7H-pyrrolo[2,3-d]pyrimidin-4-yl)amino)cyclohexyl)urea] |
| 207 | 19 | 3.7 fold | 10.9 | 70 | 1510 | 100.00 | 94.76 | 86.94 | 75.53 | 73.67 | dramatically improved half-lives | 35.4 | 1.63 | CCCNC(=O)N[C@H]1CC[C@@H](N(C)c2ncnc3[nH]ccc23)CC1 [Compound 3, 1-propyl-3-((1r,4r)-4-(methyl(7H-pyrrolo[2,3-d]pyrimidin-4-yl)amino)cyclohexyl)urea] |
| 26 | 7.5 | 2.4 fold | 3.5 | 18 | 415 | 100.00 | 100.66 | 95.39 | 87.57 | 86.91 | dramatically improved half-lives | 18.2 | 3.16 | CN(c1ncnc2[nH]ccc12)[C@H]1CC[C@H](NC(=O)NCC#N)CC1 [Compound 5, 1-(cyanomethyl)-3-((1r,4r)-4-(methyl(7H-pyrrolo[2,3-d]pyrimidin-4-yl)amino)cyclohexyl)urea] |
| 42 | 2.3 | 6 fold | 18.3 | 14 | 335 | 100.00 | 93.91 | 85.39 | 76.25 | 71.95 | dramatically improved half-lives | 36.5 | 1.58 | CN(c1ncnc2[nH]ccc12)[C@H]1CC[C@H](NC(=O)NCC(F)(F)F)CC1 [Compound 6, 1-((1r,4r)-4-(methyl(7H-pyrrolo[2,3-d]pyrimidin-4-yl)amino)cyclohexyl)-3-(2,2,2-trifluoroethyl)urea] |
| 70 | 6.6 | 45% | 10.6 | 9.3 | 77 | 100.00 | 94.12 | 82.56 | 68.65 | 62.97 |  | 53 | 1.09 | CNS(=O)(=O)C[C@H]1CC[C@H](N(C)c2ncnc3[nH]ccc23)CC1 [Oclacitinib, reference compound] |
